Activity calls are given as the source filed them.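 Rule for the calls: active = signal decrease with fitted half-maximal dose at or below ten times the highest valid tested dose; inconclusive = poor fit, or flat fit at 30 to 70% inhibition; inactive = the rest.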
Target: Zinc finger protein mex-5 (Caenorhabditis elegans) (UniProt Q9XUB2)
Test: MEX-5 zinc finger-RNA interaction blockers – biochemical, fluorescence polarization, C. elegans, cherry-picked, round 3, dose response (AID 493250)
Settings: purified MEX-5-MBP, FITC-TCR2 RNA fluorescence polarization; for activity change, negative = inhibition: at 10 µM (top of the series)

Chain of Zinc finger protein mex-5 (Caenorhabditis elegans) (Q9XUB2 whole entry, looked up): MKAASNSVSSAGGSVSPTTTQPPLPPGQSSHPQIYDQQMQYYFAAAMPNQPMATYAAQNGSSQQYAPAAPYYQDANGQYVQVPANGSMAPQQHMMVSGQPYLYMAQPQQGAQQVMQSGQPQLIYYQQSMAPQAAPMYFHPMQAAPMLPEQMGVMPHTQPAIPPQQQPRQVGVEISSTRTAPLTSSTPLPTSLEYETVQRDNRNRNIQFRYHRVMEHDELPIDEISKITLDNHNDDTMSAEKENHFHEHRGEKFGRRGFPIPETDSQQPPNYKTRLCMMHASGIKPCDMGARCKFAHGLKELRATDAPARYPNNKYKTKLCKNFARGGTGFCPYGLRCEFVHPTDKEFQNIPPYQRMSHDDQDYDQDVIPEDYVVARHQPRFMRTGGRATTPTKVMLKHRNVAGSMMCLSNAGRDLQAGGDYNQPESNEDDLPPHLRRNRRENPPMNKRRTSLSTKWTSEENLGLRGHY

SMILES	activity change, negative = inhibition	AC50
COc1ccc(CC(=O)NNc2ncnc3c2cnn3C)cc1OC	inactive	
Cc1cccc(-n2c(N)c(-c3nc4ccccc4n3C)c3nc4ccccc4nc32)c1	inactive	
CC(=O)Nc1ccc2c(c1)C(=O)N(c1cccc(C)c1)C2=O	inactive	
Cn1c(CNC(=O)c2ccc(F)cc2)cc2ccccc21	inactive	
COc1cc2c(cc1O)CC1c3c(cc(O)c(OC)c3-2)CCN1C (stereo unspecified)	inactive	
Cn1c(C2=C(O)CN(c3ccccc3)C2=N)nc2ccccc21	inactive	
COc1ccccc1N1C(=O)C2C(C(=O)c3ccccc3)=NN(c3ccccc3OC)C2C1=O (stereo unspecified)	inactive	
COc1cc(/C=N/NC(=S)Nc2cccc(C(=O)O)c2)ccc1O	inactive	
CCCC(=O)Nc1ccc(NC(=O)c2cccs2)cn1	inactive	
COc1ccc2c(c1)-c1ccccc1S(=O)(=O)N2C(C)=O	inactive	
COc1cccc(/C=N/NC(=O)N/N=C/c2cccc(OC)c2O)c1O	inactive	
CCOC(=O)/C(=C/c1ccc(N2CCC(c3ccccc3)=N2)cc1)C(C)=O		2.43 µM
CC1=C(C(=O)OCc2ccccc2)C(c2cccc([N+](=O)[O-])c2)NC(=O)N1C (stereo unspecified)	inactive	
Oc1c(C=Nc2ccccc2)sc(=S)n1Cc1ccccc1	inactive	
CCOC(=O)c1cnc2c(N=Nc3ccccc3)c(N)nn2c1N	inactive	
O=c1[nH]nc(CNc2ccc(Cl)cc2Cl)c2ccccc12	inactive	
CCC(=O)Oc1ccc2c(c1)O/C(=C\c1ccco1)C2=O		5.51 µM
O=C(Nc1cccc2ncccc12)c1ccccc1[N+](=O)[O-]	inactive	
N=C1CCC(=N)c2c1c(O)c1ccccc1c2O		6.52 µM
COc1cc2c3c(c1OC)-c1cc(O)ccc1CC3NCC2 (stereo unspecified)	inactive	
CSCCCN1CCC(n2nccc2NC(=O)CCCc2ccccc2)CC1	inactive	
CCS(=O)(=O)c1ccc2oc(=O)c(/C=C(\O)c3ccc(Cl)cc3)nc2c1	inactive	
Cc1cc(C)c[n+](-c2[nH]c(=O)sc2/C=N/N=C(\N)[S-])c1	inactive	

SMILES	activity change, negative = inhibition	AC50
CCN1/C(=C/C=C/c2oc3ccc(-c4ccccc4)cc3[n+]2CC)Oc2ccc(-c3ccccc3)cc21		0.338 µM
CC(=O)c1cc(NC(=O)c2ccc([N+](=O)[O-])cc2)c(=O)oc1C	inactive	
CC(C#N)(Nc1ccc(Cl)cc1)c1cccnc1 (stereo unspecified)	inactive	
O=c1[nH]cnc2c1C(c1ccccc1)c1c(nc[nH]c1=O)O2	inactive	
CC(=O)NNc1ncnc2ccccc12	inactive	
O=C1S/C(=C\c2cccs2)C(=O)N1c1ccc(O)cc1	inactive	
Nc1nc(Cl)nc2ccc(Br)cc12		> 10 µM (inactive)
CCCCn1c(N)c(N(Cc2ccccc2OC)C(=O)C(C)C)c(=O)[nH]c1=O	inactive	
O=C(O)c1ccc2cccnc2n1	inactive	
COc1ccc(NC(=O)/C=C/c2cccc(C(F)(F)F)c2)cn1	inactive	
CC1=Nc2ccc(C)cc2/C1=C/c1c(N)n2c(S(=O)(=O)C(C)C)nsc2nc1=O	inactive	
O=c1cc(-c2ccccc2)oc2ccc(O)cc12	inactive	
CC1(N2CCOCC2)CC2(O)C(=[N+]1[O-])CCc1c2no[n+]1[O-] (stereo unspecified)	inactive	
COc1ccc(N(CCC#N)C(=O)/C(C#N)=C/c2cccs2)cc1	inactive	
O=C(N/N=C/c1c(O)n(Cc2ccco2)c(=O)[nH]c1=O)c1ccccc1	inactive	
CCN(CC)c1ccc2nc3ccccc3[n+](CC)c2c1	inactive	
Nc1ccc2oc(-c3ccccc3Cl)cc(=O)c2c1O	inactive	
FC(F)(F)c1nc2cc3nc4ccccc4[nH]c3cc2n1	inactive	
COc1cc(OC)c2ccc(=O)oc2c1C(CC(=O)N1CCCC1)c1ccc(N(C)C)cc1 (stereo unspecified)	inactive	
COc1cc2c(cc1OC)[C@@H](Cc1ccc(OCCC#N)cc1)N(C)CC2	inactive	
COc1cccc(CNC23CC4CC(CC(C4)C2)C3)c1OCc1ccccc1	inactive	
Cc1nc2cc(C(=O)O)ccc2n1-c1ccc(F)cc1F	inactive	
CC1CN(Cc2c(O)ccc3c2oc(=O)c2ccccc23)CC(C)O1 (stereo unspecified)	inactive	
